Measured values: patent US20210403443A1, “SUBSTITUTED 1,2,4-OXADIAZOLE, ITS APPLICATION AND A PHARMACEUTICAL PREPARATION COMPRISING IT” (SVENOX PHARMACEUTICALS LLC, priority 2018, published 2021)
Converted amounts (≈) assume the structure as drawn. Where two headings read alike, the source gives them in different places.

Assays:
[1] = system: M. kansasii CNCTC My 235/80; test: microbe, parasite or virus in culture; type: cell-based; conditions: Mycobacterium kansasii, read-out: Minimum inhibiting concentration
[2] = system: Mycobacterium tuberculosis CNCTC My 331/88; test: microbe, parasite or virus in culture; type: cell-based; conditions: read-out: Minimum inhibiting concentration
M. avium CNCTC My 330/88 = test: MIC micromethod in Sula's medium, atypical strain M. avium; type: cell-based; conditions: Mycobacterium avium, read-out: Minimum inhibiting concentration
Protocol: The prepared compounds with general formula I were tested by the Institute of Public Health in Ostrava (Department of Bacteriology and Mycology, Laboratory for Diagnostics of Mycobacteria, Partyzanské náměsti 7, 702 00 Ostrava) under in vitro conditions in liquid Sula's medium and their minimum inhibiting concentrations (MIC) were determined as the biological effect of molecules cannot be predicted. The antimycobacterial activity of the prepared compounds was tested on the collection strain Mycobacterium tuberculosis CNCTC My 331/88, collection atypical strains M. avium CNCTC My 330/88 and M. kansasii CNCTC My 235/80. Their activity was compared with the effect of isoniazide (INH), a commonly used medicament.

[3] = 336 h, M. avium My 330/88, after 14 days of incubation
[4] = 504 h, M. avium My 330/88, after 21 days of incubation

Row | SMILES | MIC ([1]; 168 h) [µM] | MIC ([1]; 336 h) [µM] | MIC ([1]; 504 h) [µM] | MIC ([2]; 336 h) [µM] | MIC ([2]; 504 h) [µM] | MIC (M. avium CNCTC My 330/88; [3]) [µM] | MIC (M. avium CNCTC My 330/88; [4]) [µM] | melting point [°C]
1 | O=[N+]([O-])c1cc(CSc2nc(-c3ccccc3)no2)cc([N+](=O)[O-])c1 [Compound 1, 5-((3,5-Dinitrobenzyl)sulfanyl)-3-phenyl-1,2,4-oxadiazole] | 0.5 (≈ 0.179 µg/mL) | 1 (≈ 0.358 µg/mL) | 1 (≈ 0.358 µg/mL) | 0.5 (≈ 0.179 µg/mL) | 1 (≈ 0.358 µg/mL) | 250 (≈ 89.6 µg/mL) | 250 (≈ 89.6 µg/mL) | 135 to 136
2 | Cc1ccc(-c2noc(SCc3cc([N+](=O)[O-])cc([N+](=O)[O-])c3)n2)cc1 [Compound 2, 5-((3,5-Dinitrobenzyl)sulfanyl)-3-(p-tolyl)-1,2,4-oxadiazole] | 0.5 (≈ 0.186 µg/mL) | 1 (≈ 0.372 µg/mL) | 2 (≈ 0.745 µg/mL) | 0.5 (≈ 0.186 µg/mL) | 1 (≈ 0.372 µg/mL) | 250 (≈ 93.1 µg/mL) | 250 (≈ 93.1 µg/mL) | 150 to 152
3 | COc1ccc(-c2noc(SCc3cc([N+](=O)[O-])cc([N+](=O)[O-])c3)n2)cc1 [Compound 3] | 0.5 (≈ 0.194 µg/mL) | 1 (≈ 0.388 µg/mL) | 2 (≈ 0.777 µg/mL) | 0.5 (≈ 0.194 µg/mL) | 0.5 (≈ 0.194 µg/mL) | 250 (≈ 97.1 µg/mL) | 250 (≈ 97.1 µg/mL) | 
4 | O=[N+]([O-])c1cc(CSc2nc(-c3ccc(Cl)cc3)no2)cc([N+](=O)[O-])c1 [Compound 4] | 1 (≈ 0.393 µg/mL) | 2 (≈ 0.786 µg/mL) | 4 (≈ 1.57 µg/mL) | 0.5 (≈ 0.196 µg/mL) | 1 (≈ 0.393 µg/mL) | 250 (≈ 98.2 µg/mL) | 250 (≈ 98.2 µg/mL) | 
5 | O=[N+]([O-])c1cc(CSc2nc(-c3cccc(Cl)c3)no2)cc([N+](=O)[O-])c1 [Compound 5] | 2 (≈ 0.786 µg/mL) | 2 (≈ 0.786 µg/mL) | 4 (≈ 1.57 µg/mL) | 0.5 (≈ 0.196 µg/mL) | 1 (≈ 0.393 µg/mL) | 250 (≈ 98.2 µg/mL) | 250 (≈ 98.2 µg/mL) | 133 to 135
6 | O=[N+]([O-])c1cc(CSc2nc(-c3ccccc3Cl)no2)cc([N+](=O)[O-])c1 [Compound 6] | 8 (≈ 3.14 µg/mL) | 16 (≈ 6.28 µg/mL) | 32 (≈ 12.6 µg/mL) | 0.5 (≈ 0.196 µg/mL) | 1 (≈ 0.393 µg/mL) | 125 (≈ 49.1 µg/mL) | 125 (≈ 49.1 µg/mL) | 158 to 160
7 | O=[N+]([O-])c1cc(CSc2nc(-c3ccc(Cl)c(Cl)c3)no2)cc([N+](=O)[O-])c1 [Compound 7] | 1 (≈ 0.427 µg/mL) | 1 (≈ 0.427 µg/mL) | 2 (≈ 0.854 µg/mL) | 1 (≈ 0.427 µg/mL) | 1 (≈ 0.427 µg/mL) | 250 (≈ 107 µg/mL) | 250 (≈ 107 µg/mL) | 176 to 177
8 | O=[N+]([O-])c1cc(CSc2nc(-c3ccc(F)cc3)no2)cc([N+](=O)[O-])c1 [Compound 8] | 0.5 (≈ 0.188 µg/mL) | 1 (≈ 0.376 µg/mL) | 2 (≈ 0.753 µg/mL) | 0.25 (≈ 0.0941 µg/mL) | 0.5 (≈ 0.188 µg/mL) | 250 (≈ 94.1 µg/mL) | 250 (≈ 94.1 µg/mL) | 150 to 152
9 | O=[N+]([O-])c1cc(CSc2nc(-c3ccc(Br)cc3)no2)cc([N+](=O)[O-])c1 [Compound 9] | 1 (≈ 0.437 µg/mL) | 1 (≈ 0.437 µg/mL) | 2 (≈ 0.874 µg/mL) | 1 (≈ 0.437 µg/mL) | 1 (≈ 0.437 µg/mL) | 125 (≈ 54.7 µg/mL) | 125 (≈ 54.7 µg/mL) | 175 to 176
10 | O=[N+]([O-])c1cc(CCc2nc(-c3ccccc3)no2)cc([N+](=O)[O-])c1 [Compound 11, 5-(3,5-Dinitrophenethyl)-3-phenyl-1,2,4-oxadiazole] | 2 (≈ 0.681 µg/mL) | 4 (≈ 1.36 µg/mL) | 8 (≈ 2.72 µg/mL) | 4 (≈ 1.36 µg/mL) | 4 (≈ 1.36 µg/mL) | 250 (≈ 85.1 µg/mL) | 250 (≈ 85.1 µg/mL) | 120 to 122
11 | Cc1ccc(-c2noc(CCc3cc([N+](=O)[O-])cc([N+](=O)[O-])c3)n2)cc1 [Compound 12, 5-(3,5-Dinitrophenethyl)-3-(p-tolyl)-1,2,4-oxadiazole] | 2 (≈ 0.709 µg/mL) | 4 (≈ 1.42 µg/mL) | 4 (≈ 1.42 µg/mL) | 2 (≈ 0.709 µg/mL) | 4 (≈ 1.42 µg/mL) | 250 (≈ 88.6 µg/mL) | 250 (≈ 88.6 µg/mL) | 147 to 148
12 | COc1ccc(-c2noc(CCc3cc([N+](=O)[O-])cc([N+](=O)[O-])c3)n2)cc1 [Compound 13] | 0.5 (≈ 0.185 µg/mL) | 1 (≈ 0.37 µg/mL) | 2 (≈ 0.741 µg/mL) | 0.5 (≈ 0.185 µg/mL) | 1 (≈ 0.37 µg/mL) | 250 (≈ 92.6 µg/mL) | 250 (≈ 92.6 µg/mL) | 128 to 129
13 | O=[N+]([O-])c1cc(CCc2nc(-c3ccc(Cl)cc3)no2)cc([N+](=O)[O-])c1 [Compound 14] | > 32 | > 32 | > 32 | > 32 | > 32 | 250 (≈ 93.7 µg/mL) | 250 (≈ 93.7 µg/mL) | 182 to 183
14 | O=[N+]([O-])c1cc(CCc2nc(-c3ccc(Cl)c(Cl)c3)no2)cc([N+](=O)[O-])c1 [Compound 15] | 32 (≈ 13.1 µg/mL) | > 32 | > 32 | > 32 | > 32 | 250 (≈ 102 µg/mL) | 250 (≈ 102 µg/mL) | 154 to 155
15 | O=[N+]([O-])c1cc(CCc2nc(-c3ccc(F)cc3)no2)cc([N+](=O)[O-])c1 [Compound 16] | > 32 | > 32 | > 32 | > 32 | > 32 | 250 (≈ 89.6 µg/mL) | 250 (≈ 89.6 µg/mL) | 169 to 171
